In patent US20170333391A1, “METHOD FOR DELAYING THE ONSET OF PULMONARY FIBROSIS OR TREATING PULMONARY FIBROSIS” (EVERFRONT BIOTECH INC., priority 2016, published 2017):

How the values were obtained:
[1] = system: Rat type II alveolar cell, L2 cell line; test: Cell survival test (MTT analysis) under H2O2 oxidative stress; type: cell-based; details: 24 hours, control group = 100%
Protocol: The rat type II alveolar cell, L2 cell line (ATCC® CCL149™) were seeded into a 96-well plate at a density of 5×10^3 cells/well, 48 wells in total (separated into a control group and five experimental groups, 8 wells for each group). The cells were cultured until the next day, and then the mediums were removed. Each group was respectively treated under the following conditions to conduct follow-up experiments:
(1) Control group: cells were cultured in a F-12K medium (Kaighn's Modification of Ham's F-12 Medium, ATCC® 30-2004™) for 24 hours;
(2) Group 1: cells were cultured in a F-12K medium containing H2O2 (0.1 mM) for 24 hours;
(3) Group 2: cells were cultured in a F-12K medium containing H2O2 (0.1 mM) and compound (1) (5 μg/ml) for 24 hours;
(4) Group 3: cells were cultured in a F-12K medium containing H2O2 (0.1 mM) and N-acetylcysteine (NAC) (2 mM) for 24 hours;
(5) Group 4: cells were cultured in a F-12K medium containing H2O2 (0.2 mM) and compound (1) (5 μg/ml) for 24 hours; and
(6) Group 5: cells were cultured in a F-12K medium containing H2O2 (0.2 mM) and NAC (2 mM) for 24 hours.
The mediums were removed after culturing was complete, and then each group was respectively treated under the following conditions: F-12K mediums containing 10% of 3-(4,5-Dimethylthiazol-2-yl)-2,5-diphenyltetrazolium bromide (MTT) were added into each well, and cultured for 1 hour. Thereafter, the mediums were removed, and a suitable amount of dimethyl sulfoxide (DMSO) was added into the wells. An Enzyme-Linked ImmunoSorbent Assay reader (ELISA reader) was then used for detecting the absorbance of each group at a wavelength of 595 nm (OD595nm). The average value of each group was respectively calculated (n=8), and then the result of the control group served as the basis for calculating the relative survival rates of the other groups.

TGF-β protein [2] = test: TGF-β protein expression in TGF-β1-induced NHLF, western blotting (2-2); type: cell-based, human; details: TGF-β1-only control group = 1
Protocol: (§1) Normal Human lung fibroblasts (NHLF) were seeded into 6 cm culture dishes at a density of 2×10^5 cells/dish, comprising a control group and six experimental groups (7 dishes in total). The cells were cultured until the next day, and then the mediums were removed. Each group was respectively treated under the following conditions to conduct follow-up experiments: • (1) Positive control group: cells were cultured in a FGM-2 medium containing 1% serum and TGF-β1 (5 ng/ml) for 36 hours; • (2) Group I: cells were firstly cultured in a FGM-2 medium containing 1% serum and TGF-β1 (5 ng/ml) for 12 hours, and then compound (1) was added into the medium to provide a final concentration of 15 μg/ml; thereafter, the cells were cultured for another 24 hours; • (3) Group II: cells were firstly cultured in a FGM-2 medium containing 1% serum and TGF-β1 (5 ng/ml) for 12 hours, and then compound (1) was added into the medium to provide a final concentration of 25 μg/ml; thereafter, the cells were cultured for another 24 hours; • (4) Group III: cells were firstly cultured in a FGM-2 medium containing 1% serum and TGF-β1 (5 ng/ml) for 12 hours, and then compound (1) was added into the medium to provide a final concentration of 35 μg/ml; thereafter, the cells were cultured for another 24 hours; • (5) Group IV: cells were firstly cultured in a FGM-2 medium containing 1% serum and TGF-β1 (5 ng/ml) for 12 hours, and then the Pirfenidone was added into the medium to provide a final concentration of 100 μg/ml; thereafter, the cells were cultured for another 24 hours; • (6) Group V: cells were firstly cultured in a FGM-2 medium containing 1% serum and TGF-β1 (5 ng/ml) for 12 hours, and then the Pirfenidone was added into the medium to provide a final concentration of 250 μg/ml; thereafter, the cells were cultured for another 24 hours; and • (7) Group VI: cells were firstly cultured in a FGM-2 medium containing 1% serum and TGF-β1 (5 ng/ml) for 12 hours, and then the Pirfenidone was added into the medium to provide a final concentration of 500 μg/ml; thereafter, the cells were cultured for another 24 hours.
(§2) Thereafter, the proteins in the cells of each group were extracted, and the expressions of type I collagen, BMP-7 protein and TGF-β protein in the NHLF cells of each group were measured with western blotting. The results of the control group served as the basis for calculating the relative expression levels of the other groups.

type I collagen = test: Type I collagen expression in TGF-β1-induced NHLF, western blotting (2-2); type: cell-based, human; details: TGF-β1-only control group = 1
Protocol: as §1, §2

BMP-7 protein [3] = test: BMP-7 protein expression in TGF-β1-induced NHLF, western blotting (2-2); type: cell-based, human; details: TGF-β1-only control group = 1
Protocol: as §1, §2

p-smad2/3 protein = p-smad2/3 protein expression in TGF-β1-induced NHLF, western blotting (Example 4); type: cell-based, human; details: uninduced control = 1, TGF-β1-only group A = 1.42
Protocol: (§3) Normal Human lung fibroblasts (NHLF) were seeded into 6 cm culture dishes at a density of 2×10^5 cells/dish, comprising a control group and five experimental groups (6 dishes in total). The cells were cultured until the next day, and then the mediums were removed. Each group was respectively treated under the following conditions to conduct follow-up experiments: • (1) Control group: cells were cultured in a FGM-2 medium containing 1% serum for 36 hours; • (2) Group A: cells were cultured in a FGM-2 medium containing 1% serum and TGF-β1 (5 ng/ml) for 36 hours; • (3) Group B: cells were firstly cultured in a FGM-2 medium containing 1% serum and TGF-β1 (5 ng/ml) for 12 hours, and then compound (1) was added into the medium to provide a final concentration of 15 μg/ml; thereafter, the cells were cultured for another 24 hours; • (4) Group C: cells were firstly cultured in a FGM-2 medium containing 1% serum and TGF-β1 (5 ng/ml) for 12 hours, and then compound (1) was added into the medium to provide a final concentration of 30 μg/ml; thereafter, the cells were cultured for another 24 hours; • (5) Group D: cells were firstly cultured in a FGM-2 medium containing 1% serum and TGF-β1 (5 ng/ml) for 12 hours, and then compound (2) was added into the medium to provide a final concentration of 100 μg/ml; thereafter, the cells were cultured for another 24 hours; and • (6) Group E: cells were firstly cultured in a FGM-2 medium containing 1% serum and TGF-β1 (5 ng/ml) for 12 hours, and then compound (2) was added into the medium to provide a final concentration of 200 μg/ml; thereafter, the cells were cultured for another 24 hours.
(§4) Thereafter, the proteins in the cells of each group were extracted, and the expressions of BMP-7 protein, TGF-β protein and p-smad2/3 protein in the NHLF cells of each group were measured with western blotting. The results of the control group served as the basis for calculating the relative expression levels of the other groups.

BMP-7 protein [4] = test: BMP-7 protein expression in TGF-β1-induced NHLF, western blotting (Example 4); type: cell-based, human; details: uninduced control = 1, TGF-β1-only group A = 0.19
Protocol: as §3, §4

TGF-β protein [5] = test: TGF-β protein expression in TGF-β1-induced NHLF, western blotting (Example 4); type: cell-based, human; details: uninduced control = 1, TGF-β1-only group A = 1.75
Protocol: as §3, §4

[6] = Group IV: TGF-β1 5 ng/ml 12 h, then Pirfenidone 100 μg/ml 24 h
[7] = Group V: TGF-β1 5 ng/ml 12 h, then Pirfenidone 250 μg/ml 24 h
[8] = Group VI: TGF-β1 5 ng/ml 12 h, then Pirfenidone 500 μg/ml 24 h
[9] = Group D: TGF-β1 5 ng/ml 12 h, then compound (2) 100 μg/ml 24 h
[10] = Group E: TGF-β1 5 ng/ml 12 h, then compound (2) 200 μg/ml 24 h

## CC(=O)N[C@@H](CS)C(=O)O [NAC, N-acetylcysteine, reference compound]
[1]; Group 3: H2O2 0.1 mM + NAC 2 mM, H2O2 0.1 mM alone = 38.9%
  Relative survival rate: 101.9%
[1]; Group 5: H2O2 0.2 mM + NAC 2 mM
  Relative survival rate: 83.1%

## Cc1ccc(=O)n(-c2ccccc2)c1 [Pirfenidone, reference compound]
TGF-β protein [2]; [6]
  Relative expression level (fold) TGF-β protein: 0.67 fold
TGF-β protein [2]; [7]
  Relative expression level (fold) TGF-β protein: 0.64 fold
TGF-β protein [2]; [8]
  Relative expression level (fold) TGF-β protein: 0.67 fold
Type I collagen; [6]
  Relative expression level (fold) Type I collagen: 0.95 fold
Type I collagen; [7]
  Relative expression level (fold) Type I collagen: 0.57 fold
Type I collagen; [8]
  Relative expression level (fold) Type I collagen: 0.50 fold
BMP-7 protein [3]; [6]
  Relative expression level (fold) BMP-7 protein: 1.52 fold
BMP-7 protein [3]; [7]
  Relative expression level (fold) BMP-7 protein: 1.43 fold
BMP-7 protein [3]; [8]
  Relative expression level (fold) BMP-7 protein: 1.34 fold

## CCCCC(=O)c1ccccc1C(=O)O [compound (2)]
p-smad2/3 protein; [9]
  Relative expression level (fold) p-smad2/3 protein: 1.12 fold
p-smad2/3 protein; [10]
  Relative expression level (fold) p-smad2/3 protein: 1.05 fold
BMP-7 protein [4]; [9]
  Relative expression level (fold) BMP-7 protein: 0.11 fold
BMP-7 protein [4]; [10]
  Relative expression level (fold) BMP-7 protein: 0.08 fold
TGF-β protein [5]; [9]
  Relative expression level (fold) TGF-β protein: 0.46 fold
TGF-β protein [5]; [10]
  Relative expression level (fold) TGF-β protein: 0.29 fold
